Measurements: patent US9248163B2, “Insulin-like growth factor binding protein 7 for treatment of cancer” (University of Massachusetts, priority 2007, dated 2016)

How the values were obtained:
[1] = system: primary melanocytes; test: Proliferation assay of primary melanocytes (trypan blue exclusion); type: cell-based, human; details: 14 days after treatment
Procedure: (§1) For the proliferation assay shown in FIG. 1B, 1×10^4 cells stably expressing an shRNA were cultured in 12-well plate format, infected with BRAFV600E-expressing retrovirus and after 14 days stained with crystal violet. For all other quantitative proliferation assays, cell viability was measured by trypan blue exclusion test at the time point indicated in the relevant figure legend. Values were expressed as percent cell growth, as described in the relevant figure legend. For the proliferation assays shown in FIG. 2A, CM was replenished every 3 days, and proliferation was measured after a total of 14 days of CM treatment. Unless otherwise stated, rIGFBP7 was added to the culture medium at a concentration of 10 μg/ml.
To confirm that IGFBP7 could block cellular proliferation, purified recombinant IGFBP7 (rIGFBP7) was purified from baculovirus-infected insect cells. […] Collectively, the results of FIGS. 2A-2D indicate that following expression of BRAFV600E, melanocytes synthesize and secrete increased amounts of IGFBP7, which then acts through an autocrine/paracrine pathway to induce senescence.

[2] = system: melanocytes; test: Senescence-associated β-galactosidase assay; type: cell-based, human; details: rIGFBP7 10 μg/ml for 14 days; growth-arrested cells
Procedure: Melanocytes infected with a retrovirus expressing either vector or BRAFV600E, or melanocytes treated with BRAFV600E/melanocyte CM or rIGFBP7 (10 μg/ml) for 14 days were washed twice with PBS (5 minutes at room temperature), fixed with 3% formaldehyde (5 minutes at room temperature), and washed three more times with PBS. Cells were then incubated at 37° C. (0% CO2) overnight in SA-β-Gal stain solution (1 mg/mL X-Gal (5-bromo-4-chloro-3-indoyl b-D-galactoside), 40 mM citric acid/sodium phosphate (pH 6.0), 5 mM potassium ferrocyanide, 5 mM potassium ferricyanide, 150 mM NaCl and 2 mM MgCl2). Cells were washed with PBS and visualized on a Zeiss Axiovert™ 40 CFL microscope. Images were captured using QCapture™ Pro version 5 software (QImaging Corporation).

[3] = system: human melanoma cell lines; test: Proliferation assay of human melanoma cell lines; type: cell-based; details: 24 hours, 10 μg/ml
Procedure: as §1
Next, the ability of IGFBP7 to block cellular proliferation in a panel of human melanoma cell lines was analyzed. The cells contained either an activating BRAF mutation (BRAFV600E; SK-MEL-28, MALME-3M, WM793B, WM39 and WM278), an activating RAS mutation (RASQ61R; SK-MEL-2, SK-MEL-103, and WM1366), or were wild type for both BRAF and RAS (CHL, SK-MEL-31, WM1321 and WM3211). For each cell line, the presence of IGFBP7 in the CM was determined by immunoblot analysis (FIG. 3A), and sensitivity to IGFBP7-induced growth inhibition was measured in a proliferation assay (FIG. 3B). The results reveal a striking inverse correlation between IGFBP7 expression and sensitivity to IGFBP7-mediated growth inhibition that correlates with the status of BRAF or RAS.

[4] = system: human melanoma cell lines; test: Apoptosis assay (Annexin V-PE) in melanoma cells; type: cell-based
Procedure: PFF fibroblasts or melanocytes or shRNA knockdown derivatives (5×10^5 cells) were infected with BRAFV600E-expressing retrovirus, and 4 days later the total cell population was stained for Annexin V-PE (BD Biosciences). To monitor apoptosis in melanoma cells following rIGFBP7 treatment, 5×10^5 cells were treated with rIGFBP7 (10 μg/ml) for 24 hours and stained for Annexin V-PE.
Finally, it was determined whether apoptosis was dependent upon the continual presence of rIGFBP7 or was irreversible following transient exposure to rIGFBP7. SK-MEL-28 cells were incubated with rIGFBP7 for various lengths of time, following which the cells were washed and cultured in medium lacking rIGFBP7, and apoptosis was quantitated after 24 hours. The results, shown in FIG. 3H, indicate that following 6 hours of incubation with rIGFBP7, the cells were irreversibly committed to apoptosis, which occurred even following removal of rIGFBP7.

[5] = system: NCI 60 panel of human cancer cell lines; test: Apoptosis (Annexin V-PE) in the NCI 60 panel of human cancer cell lines; type: cell-based
Procedure: The ability of IGFBP7 to induce apoptosis was assessed in the NCI 60 panel of human cancer cell lines, which were obtained from the National Cancer Institute (NCI). The panel includes cell lines corresponding to breast (MDA-MB-231, HS 578T, BT-549, T47-D, MCF7), ovarian (NCI-ADR-RES, OVCAR-3, OVCAR-5, OVCAR-8, OVCAR-4, SK-OV-3, IGROV1), prostate (DU-145, PC-3), renal (TK-10, CAKI-1, A496, ACHN, RXF-393, 786-O, SN12C, UO-31), non-small cell lung (NCI-H460, HOP-62, A549-ATCC, NCI-H226, EKVX, NCI-H322M, HOP-92, NCI-H522), central nervous system (CNS) (SF-295, SF-268, SF-539, SNB-19, SNB-75, U251), colon (HCT-15, SW-620, COLO205, HT29, HCC-2998, HCT-116, SM-12), melanoma (SK-MEL-28, SK-M2L-2, LOX IMV1, M14, MALM-3M, SK-MEL-5, UACC-257, UACC-62, MDA-MB-435), and hematopoietic (CCRF-CEM, K-562, MOLT-4, SR, RPMI-8226) cancers. These cell lines have been extensively characterized and their mutational status for a number of human cancer genes, including BRAF and RAS (e.g., NRAS, KRAS, or HRAS), is known (see the World Wide Web at discover.nci.nih.gov/cellminer/mutationGeneLoad.do).
rIGFBP7 was expressed and purified as described above. To monitor apoptosis following rIGFBP7 treatment, 5×10^5 cells were treated with rIGFBP7 (10 μg/ml) for 24 hours and stained for Annexin V-PE. The results are shown in FIG. 11A. rIGFBP7 induced apoptosis in 11/11 (100%) of the cell lines that contained a BRAF mutation and 8/13 (61.5%) of the cell lines that contained a RAS mutation. One cell line contained both a BRAF and a RAS mutation, and this cell line was susceptible to rIGFBP7-mediated apoptosis.

[6] = system: A375(Fluc-IRES-GFP) cells; test: Pulmonary metastasis model, A375(Fluc-IRES-GFP) cells by tail vein injection
Text: For these experiments, A375(Fluc-IRES-GFP) cells were used, which are a highly metastatic, BRAF-positive human melanoma cell line stably expressing an Fluc-IRES-GFP reporter construct (where Fluc is the firefly luciferase gene, IRES is an internal ribosomal entry site and GFP is green fluorescent protein) (Collisson et al., 2003, Cancer Res., 63:5669-5673). The presence of Fluc-IRES-GFP enables tumor growth to be quantified over time in live animals by serial bioluminescent optical imaging.
Two treatment regimens were tested. In one set of experiments, administration of IGFBP7 was initiated 3 days after injection of A375-Fluc cells, at which time metastatic disease would be significant (FIG. 12A). In these experiments, 7×10^5 A375(Fluc-IRES-GFP) cells were injected into the tail vein of 10 athymic Balb/c (nu/nu) mice (Taconic). At days 3, 6 and 9, mice were injected via the tail vein with either 100 μg purified, recombinant IGFBP7 (n=5 mice) or, as a control, phosphate buffered saline (PBS) (n=5 mice). On day 6, mice were analyzed for quantitation of metastatic tumor burden by using a Xenogen brand bioluminescent imaging system. […] Mice were monitored daily for viability over 30 days, and the ability of systemically administered IGFBP7 to suppress metastatic disease was assessed by survival assays (Kaplan-Meier analysis).
In a second set of experiments, administration of IGFBP7 was initiated both before and shortly after injection of A375(Fluc-IRES-GFP) cells, to test the ability of IGFBP7 to function prophylactically to prevent metastasis and/or treat early metastatic disease (FIG. 13A). In these experiments, 100 μg purified, recombinant IGFBP7 (or, as a control, PBS) was injected into the tail vein of mice (n=5 mice for each group). One day later, mice were injected with 7×10^5 A375(Fluc-IRES-GFP) cells, followed by injection of 100 μg on days 3 and 6. Mice were monitored daily for viability over 30 days, and the ability of systemically administered IGFBP7 to suppress metastatic disease was assessed by survival assays (Kaplan-Meier analysis).

## rIGFBP7: purified recombinant human IGFBP7, C-terminal Flag-tagged, from baculovirus-infected Sf9 insect cells
[1]
  proliferation of primary melanocytes: blocked proliferation of primary melanocytes in a dose-dependent manner
[2]
  senescence-associated β-galactosidase staining: stained positively
[3]; cells with wild type BRAF and RAS
  sensitivity to IGFBP7-mediated growth inhibition: relatively insensitive
[3]; melanoma cell lines with activating BRAF mutation (BRAFV600E)
  sensitivity to IGFBP7-mediated growth inhibition: highly sensitive
[3]; melanoma cell lines with activating RAS mutation (RASQ61R)
  sensitivity to IGFBP7-mediated growth inhibition: partially sensitive
[4]; SK-MEL-28 cells, washed, apoptosis quantitated after 24 hours
  incubation time after which cells were irreversibly committed to apoptosis: 6 h
[4]; melanoma cell lines with activating BRAF mutation
  surviving senescent cells: undetectable
[4]; melanoma cell lines with activating BRAF mutation, 10 μg/ml, 24 hours
  apoptosis: strongly induced apoptosis
[5]; cell lines that contained a BRAF mutation (11/11), 10 μg/ml, 24 hours
  cell lines in which apoptosis was induced: 100%
[5]; cell lines that contained a RAS mutation (8/13), 10 μg/ml, 24 hours
  cell lines in which apoptosis was induced: 61.5%
[5]; cell lines without a BRAF or RAS mutation (4/34), 10 μg/ml, 24 hours
  cell lines susceptible to apoptosis: 11.8%
[5]; one cell line with both a BRAF and a RAS mutation
  susceptibility to rIGFBP7-mediated apoptosis: susceptible
[6]; 100 μg one day before cell injection and on days 3 and 6, PBS mice died within 18 days
  survival (Kaplan-Meier): still viable at day 30
[6]; 100 μg tail vein at days 3, 6 and 9 after cell injection, control mice died at 20 days
  survival (Kaplan-Meier): still viable at day 30
[6]; 100 μg tail vein from day 3, imaged on day 6
  lung metastasis by bioluminescent imaging: no evidence of lung metastasis
